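Test compounds were applied to cells in 96-well plates for 48 hours at 5 doses. Abbreviation: GI50, concentration required for 50% inhibition of growth.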 The source made the active and inactive calls. Cut-off read from the data, not from the text of the source: active = GI50 up to about 1.1 µM and inactive = higher.
Tests used:
Assay in all cases: inhibition of tumour cell growth, NCI panel, 48 h
SF-268 = test system: SF-268
786-0 = test system: 786-0
CAKI-1 = test system: CAKI-1
SF-539 = test system: SF-539
LOX IMVI = test system: LOX IMVI
SK-MEL-5 = test system: SK-MEL-5
UACC-257 = test system: UACC-257
COLO 205 = test system: COLO 205
HCT-116 = test system: HCT-116
DLD-1 = test system: DLD-1
OVCAR-5 = test system: OVCAR-5
UO-31 = test system: UO-31
UACC-62 = test system: UACC-62
SN12C = test system: SN12C
RXF 393 = test system: RXF 393
HOP-92 = test system: HOP-92
MDA-N = test system: MDA-N
NCI/ADR-RES = test system: NCI/ADR-RES
MDA-MB-231 = test system: MDA-MB-231
DU-145 = test system: DU-145

Measured: GI50

CC(C)NCCCC(C)Nc1ccnc2ccc3nn(C)nc3c12 (stereo not drawn)
inactive: SF-268 96.8 µM | 786-0 44.2 µM | CAKI-1 60.5 µM | SF-539 83.2 µM | LOX IMVI 33.6 µM | SK-MEL-5 38.5 µM | UACC-257 74.5 µM | COLO 205 28.3 µM | HCT-116 34.8 µM | DLD-1 71.9 µM | OVCAR-5 75.7 µM | UO-31 33.7 µM | UACC-62 > 100 µM | SN12C 61.8 µM

COC(=O)C(C(=O)Cc1ccccc1[N+](=O)[O-])C(=O)OC
inactive: SF-268 > 100 µM | 786-0 > 100 µM | CAKI-1 > 100 µM | SF-539 > 100 µM | LOX IMVI > 100 µM | SK-MEL-5 > 100 µM | UACC-257 > 100 µM | RXF 393 > 100 µM | HOP-92 > 100 µM | COLO 205 > 100 µM | HCT-116 > 100 µM | DLD-1 > 100 µM | UO-31 > 100 µM | UACC-62 > 100 µM | SN12C > 100 µM

COC(=O)[C@]12CCC(C)[C@H](C)[C@H]1C1=CCC3[C@@]4(C)CC[C@H](OC(C)=O)C(C)(C)C4CC[C@@]3(C)C1(C)C(O)C2 (stereo partly drawn)
inactive: SF-268 > 100 µM | 786-0 > 100 µM | CAKI-1 > 100 µM | SF-539 > 100 µM | LOX IMVI 74 µM | SK-MEL-5 > 100 µM | UACC-257 > 100 µM | HOP-92 > 100 µM | COLO 205 > 100 µM | HCT-116 54.2 µM | DLD-1 > 100 µM | OVCAR-5 > 100 µM | UO-31 > 100 µM | UACC-62 > 100 µM | SN12C > 100 µM

CCOC(=O)C1(C(=O)OCC)C(C(C)(C)C)=C(C)c2ccccc21
inactive: SF-268 16.8 µM | 786-0 15.8 µM | SF-539 18.2 µM | LOX IMVI 12.3 µM | SK-MEL-5 9.59 µM | UACC-257 12.2 µM | RXF 393 13.5 µM | HOP-92 3.4 µM | COLO 205 13.3 µM | HCT-116 6.75 µM | DLD-1 11.8 µM | OVCAR-5 14.4 µM | UO-31 15.4 µM | UACC-62 12.9 µM | SN12C 15.3 µM

O=C1c2ccccc2C(=O)c2[nH]c(Cc3ccc(F)cc3)nc21
inactive: SF-268 21.8 µM | 786-0 16.9 µM | CAKI-1 19.7 µM | SF-539 17.8 µM | UACC-257 16.3 µM | RXF 393 6.97 µM | HOP-92 19.9 µM | COLO 205 22.1 µM | HCT-116 19.5 µM | DLD-1 4.01 µM | UO-31 29.6 µM | UACC-62 15.5 µM | SN12C 22 µM

O=C(Nc1cc(Cl)cc(Cl)c1)/C(Cc1nc2ccccc2nc1O)=N/NC(=O)c1ccncc1
inactive: 786-0 > 100 µM | CAKI-1 > 100 µM | SF-539 > 100 µM | LOX IMVI > 100 µM | SK-MEL-5 > 100 µM | UACC-257 > 100 µM | HOP-92 14.4 µM | COLO 205 > 100 µM | HCT-116 > 100 µM | DLD-1 > 100 µM | OVCAR-5 67 µM | UO-31 > 100 µM | UACC-62 > 100 µM

CCOC(=O)c1c2ccc(/C=C/C(=O)OC)ccc-2c(C(=O)OCC)c1N
inactive: SF-268 2.11 µM | 786-0 > 100 µM | CAKI-1 > 100 µM | SF-539 > 100 µM | LOX IMVI > 100 µM | SK-MEL-5 > 100 µM | UACC-257 > 100 µM | RXF 393 > 100 µM | HOP-92 > 100 µM | COLO 205 > 100 µM | DLD-1 > 100 µM | OVCAR-5 > 100 µM | UO-31 > 100 µM | UACC-62 > 100 µM

N#CC(C(=O)/C(=N/NC(=O)c1ccccc1O)C(C#N)c1ccccc1)c1ccccc1 (stereo not drawn)
inactive: SF-268 > 100 µM | 786-0 > 100 µM | SF-539 > 100 µM | LOX IMVI > 100 µM | UACC-257 > 100 µM | RXF 393 > 100 µM | HOP-92 > 100 µM | COLO 205 > 100 µM | HCT-116 > 100 µM | DLD-1 > 100 µM | UO-31 > 100 µM | UACC-62 > 100 µM | SN12C > 100 µM

CC(C)N1CCOC(c2ccc(O)c(O)c2)C1 (stereo not drawn)
inactive: SF-268 > 100 µM | 786-0 > 100 µM | CAKI-1 > 100 µM | LOX IMVI > 100 µM | SK-MEL-5 > 100 µM | UACC-257 > 100 µM | RXF 393 > 100 µM | HOP-92 > 100 µM | COLO 205 > 100 µM | DLD-1 > 100 µM | OVCAR-5 > 100 µM | UO-31 > 100 µM | UACC-62 > 100 µM | SN12C > 100 µM

COC(=O)C1=CC2C(=O)OC1CC2C#N (stereo not drawn)
inactive: SF-268 > 100 µM | 786-0 > 100 µM | CAKI-1 > 100 µM | SF-539 > 100 µM | LOX IMVI > 100 µM | SK-MEL-5 > 100 µM | UACC-257 > 100 µM | HOP-92 > 100 µM | COLO 205 > 100 µM | HCT-116 > 100 µM | DLD-1 > 100 µM | UO-31 > 100 µM | UACC-62 > 100 µM | SN12C > 100 µM

Cc1ccc(C2=NN=C3C(c4ccccc4)=Nc4ccccc4N3C2)cc1
inactive: SF-268 4.49 µM | 786-0 6.56 µM | CAKI-1 19.7 µM | SF-539 19.1 µM | LOX IMVI 5.65 µM | SK-MEL-5 6.31 µM | MDA-N 32.9 µM | NCI/ADR-RES 3.93 µM | UACC-257 4.03 µM | MDA-MB-231 19.8 µM | RXF 393 4.41 µM | HOP-92 24.1 µM | COLO 205 9.77 µM | HCT-116 5.28 µM | OVCAR-5 18 µM | DU-145 3.14 µM | UO-31 4.1 µM | UACC-62 15.7 µM | SN12C 15.5 µM

O=c1[nH]c(=O)n(C2CC(O)C(CO)O2)cc1I (stereo not drawn)
inactive: SF-268 > 100 µM | 786-0 > 100 µM | CAKI-1 63.8 µM | SF-539 > 100 µM | LOX IMVI > 87.1 µM | SK-MEL-5 > 100 µM | MDA-N > 100 µM | NCI/ADR-RES > 100 µM | UACC-257 > 100 µM | MDA-MB-231 > 100 µM | RXF 393 > 100 µM | HOP-92 > 100 µM | COLO 205 > 100 µM | HCT-116 > 100 µM | OVCAR-5 > 100 µM | DU-145 > 100 µM | UO-31 > 100 µM | UACC-62 > 100 µM | SN12C 89.9 µM

NC(C(=O)O)C(N)C(=O)O (stereo not drawn)
inactive: SF-268 > 100 µM | 786-0 > 100 µM | CAKI-1 > 100 µM | SF-539 > 100 µM | LOX IMVI > 100 µM | SK-MEL-5 > 100 µM | MDA-N > 100 µM | NCI/ADR-RES > 100 µM | UACC-257 > 100 µM | MDA-MB-231 > 100 µM | RXF 393 > 100 µM | HOP-92 > 100 µM | COLO 205 > 100 µM | HCT-116 > 100 µM | OVCAR-5 > 100 µM | DU-145 > 100 µM | UO-31 > 100 µM | UACC-62 > 100 µM | SN12C > 100 µM

Cc1nc2nn[nH]n2c(=O)c1CCO
inactive: SF-268 > 100 µM | 786-0 > 100 µM | CAKI-1 > 100 µM | SF-539 > 100 µM | LOX IMVI > 100 µM | SK-MEL-5 > 100 µM | MDA-N > 100 µM | NCI/ADR-RES > 100 µM | UACC-257 > 100 µM | MDA-MB-231 > 100 µM | RXF 393 > 100 µM | HOP-92 > 100 µM | COLO 205 > 100 µM | HCT-116 > 100 µM | OVCAR-5 > 100 µM | DU-145 > 100 µM | UO-31 > 100 µM | UACC-62 > 100 µM | SN12C > 100 µM

CN(C(=O)C12C3C4C1C1C2C3C41I)C(C)(C)C (stereo not drawn)
inactive: SF-268 > 100 µM | 786-0 > 100 µM | CAKI-1 > 100 µM | SF-539 > 100 µM | LOX IMVI > 100 µM | SK-MEL-5 > 63.1 µM | UACC-257 > 88.5 µM | COLO 205 > 87.1 µM | HCT-116 70.1 µM | DLD-1 > 100 µM | OVCAR-5 > 100 µM | UO-31 > 67.1 µM | UACC-62 > 83 µM | SN12C > 100 µM

COc1cccc(NC(=O)CC(=O)N2N=C(C)C(/N=N\c3ccc(S(=O)(=O)c4ccc(/N=N/C5C(=O)N(C(=O)CC(=O)Nc6cccc(OC)c6)N=C5C)cc4)cc3)C2=O)c1 (stereo not drawn)
inactive: SF-268 > 100 µM | 786-0 > 100 µM | CAKI-1 > 100 µM | SF-539 > 100 µM | LOX IMVI > 100 µM | SK-MEL-5 > 100 µM | MDA-N > 100 µM | NCI/ADR-RES > 100 µM | UACC-257 > 100 µM | MDA-MB-231 > 100 µM | RXF 393 > 100 µM | HOP-92 > 100 µM | COLO 205 > 100 µM | HCT-116 > 100 µM | OVCAR-5 > 100 µM | DU-145 > 100 µM | UO-31 > 100 µM | UACC-62 > 100 µM | SN12C > 100 µM

N=C(N)Nc1nc2cc([N+](=O)[O-])ccc2[nH]1
inactive: SF-268 > 100 µM | 786-0 > 100 µM | CAKI-1 > 100 µM | SF-539 56.6 µM | LOX IMVI > 100 µM | SK-MEL-5 83 µM | MDA-N > 100 µM | NCI/ADR-RES 58.5 µM | UACC-257 80.2 µM | MDA-MB-231 > 100 µM | RXF 393 58.9 µM | HOP-92 > 100 µM | COLO 205 > 100 µM | HCT-116 > 100 µM | OVCAR-5 > 100 µM | DU-145 > 100 µM | UO-31 93.8 µM | UACC-62 55.1 µM | SN12C 86.1 µM
